Calls of active or inactive are those of the source. The calls are words filed in the database; no cut-off is given here.
Assays:
[1] = organism: Mus musculus; assay: (§1) Immunosuppressive activity in OT2 mouse CD4-positive T cells derived OVA(323 to 339)-activated Th-differentiating media cultured Th17 cells assessed as reduction in pDBU/ionomycin-stimulated 1L17A production up to 10 uM treated last 2 days of 5 days differentiation followed by pDBU/ionomycin stimulation on day 5 measured after 4 hrs by anti-mouse IL17A-APC staining based flow cytometry; type: functional
[2] = organism: Mus musculus; assay: as §1, with “Th1” for “Th17”, “IFNgamma” for “1L17A”, “IFNgamma-Pacific Blue/IL-2-APC” for “IL17A-APC”; type: functional
[3] = as §1, with “Th1” for “Th17”, “IFNgamma” for “1L17A”, “at early stage by measuring INFgamma level at 100 nM” for “up to 10 uM”, “IFNgamma-Pacific Blue/IL-2-APC” for “IL17A-APC”, “cytometry (reference value: 57.3%)” for “cytometry”; type: functional; parameters: scale not given: the % may be the effect or the level left
[4] = tested on: Mus musculus; assay: (§2) Immunosuppressive activity in MOG/CFA/Ptx-induced C57B/6 mouse model of experimental autoimmune encephalitis assessed as granulocytic myeloid-derived suppressor cells at 4 umol, ip administered on day 4 and 6 starting from 2 days post-disease induction and measured on day 7 post-last disease induction by immunostaining-based flow cytometry (reference value: 28.1%); type: functional
[5] = tested on: Mus musculus; assay: as §2, with “live” for “granulocytic myeloid-derived suppressor”, “live/dead staining-based” for “immunostaining-based”, “87.5%)” for “28.1%)”; type: functional
[6] = tested on: Mus musculus; assay: Immunosuppressive activity in MOG/CFA/Ptx-induced C57B/6 mouse model of experimental autoimmune encephalitis assessed as decrease in clinical symptoms at 4 umol, ip administered on day 4, 6, and 8 starting from 2 days post-disease induction and measured daily up to 50 days; type: functional, organism-based
[7] = tested on: Mus musculus; assay: as §2, with “change in T cell composition” for “granulocytic myeloid-derived suppressor cells”, “cytometry” for “cytometry (reference value: 28.1%)”; type: functional, organism-based
[8] = tested on: Mus musculus; assay: as §2, with “change in macrophage composition” for “granulocytic myeloid-derived suppressor cells”, “cytometry” for “cytometry (reference value: 28.1%)”; type: functional, organism-based
[9] = tested on: Mus musculus; assay: as §2, with “macrophage” for “granulocytic myeloid-derived suppressor”, “10.5%)” for “28.1%)”; type: functional
[10] = as §1, with “Th1” for “Th17”, “IFNgamma” for “1L17A”, “at early stage by measuring INFgamma level at” for “up to”, “IFNgamma-Pacific Blue/IL-2-APC” for “IL17A-APC”, “cytometry (reference value: 57.3%)” for “cytometry”; type: functional; parameters: scale not given: the % may be the effect or the level left
[11] = Cytotoxicity against OT1 mouse CD8-positive T cells assessed as cell viability at 100 nM measured after 48 hrs by live/dead viability staining based flow cytometry (reference value: 39.5%); conditions: read-out: Activity
[12] = tested on: Mus musculus; assay: Immunosuppressive activity in MOG/CFA/Ptx-induced C57B/6 mouse model of experimental autoimmune encephalitis assessed as time of disease onset at 4 umol, ip administered on day 4, 6, and 8 starting from 2 days post-disease induction and measured daily up to 50 days; type: functional
[13] = tested on: Mus musculus; assay: (§3) Immunosuppressive activity in MOG/CFA/Ptx-induced C57B/6 mouse model of experimental autoimmune encephalitis assessed as change in granulocytic myeloid-derived suppressor cell composition at 4 umol, ip administered on day 4 and 6 starting from 2 days post-disease induction and measured on day 7 post-last disease induction by immunostaining-based flow cytometry; type: functional, organism-based
[14] = as §1, with “Th1” for “Th17”, “IFNgamma” for “1L17A”, “at late stage by measuring INFgamma level at 100 nM” for “up to 10 uM”, “IFNgamma-Pacific Blue/IL-2-APC” for “IL17A-APC”, “cytometry (reference value: 4.34%)” for “cytometry”; type: functional; parameters: scale not given: the % may be the effect or the level left
[15] = tested on: Mus musculus; assay: as §3, with “neutrophil” for “granulocytic myeloid-derived suppressor cell”; type: functional, organism-based
[16] = as §1, with “Th1” for “Th17”, “IFNgamma” for “1L17A”, “at late stage by measuring INFgamma level at” for “up to”, “IFNgamma-Pacific Blue/IL-2-APC” for “IL17A-APC”, “cytometry (reference value: 4.34%)” for “cytometry”; type: functional; parameters: scale not given: the % may be the effect or the level left
[17] = tested on: Mus musculus; assay: as §2, with “inflammatory neutrophil” for “granulocytic myeloid-derived suppressor”, “35.2%)” for “28.1%)”; type: functional
[18] = tested on: Mus musculus; assay: as §3, with “regulatory T” for “granulocytic myeloid-derived suppressor”; type: functional, organism-based
[19] = Toxicity in MOG/CFA/Ptx-induced C57B/6 mouse model of experimental autoimmune encephalitis assessed as adverse changes at 4 umol, ip administered on day 4, 6, and 8 starting from 2 days post-disease induction and measured up to 50 days; type: organism-based; conditions: in vivo
[20] = Cytotoxicity against OT2 mouse CD4-positive T cells assessed as cell viability at 100 nM measured after 48 hrs by live/dead viability staining based flow cytometry (reference value: 57.2%); conditions: read-out: Activity
[21] = tested on: Mus musculus; assay: as §2, with “CD11b+ F4/80+” for “granulocytic myeloid-derived suppressor”, “15%)” for “28.1%)”; type: functional
[22] = tested on: Mus musculus; assay: as §3, with “dendritic” for “granulocytic myeloid-derived suppressor”; type: functional, organism-based
[23] = as §1, with “by measuring IL17A level at 100 nM” for “up to 10 uM”, “cytometry (reference value: 1.44%)” for “cytometry”; type: functional; parameters: scale not given: the % may be the effect or the level left
[24] = Cytotoxicity against OT1 mouse CD8-positive T cells assessed as cell viability at 10 uM measured after 48 hrs by live/dead viability staining based flow cytometry (reference value: 39.5%); conditions: read-out: Activity
[25] = Cytotoxicity against OT2 mouse CD4-positive T cells assessed as cell viability at 10 uM measured after 48 hrs by live/dead viability staining based flow cytometry (reference value: 57.2%); conditions: read-out: Activity
[26] = as §1, with “by measuring IL17A level at” for “up to”, “cytometry (reference value: 1.44%)” for “cytometry”; type: functional; parameters: scale not given: the % may be the effect or the level left
[27] = organism: Mus musculus; assay: as §1, with “Th1” for “Th17”, “IFNgamma” for “1L17A”, “production” for “production up to 10 uM”, “IFNgamma-Pacific Blue/IL-2-APC” for “IL17A-APC”; type: functional

Structure (SMILES): CC(C)=CC1Cc2c(ccc3c(Cc4c(O)c(C)c(C)oc4=O)cccc23)O1 (stereo not given)
- Activity [1]: Active
- Activity [2]: Active

Structure (SMILES): Cc1oc(=O)c(C[C@@H]2CCC[C@H]3CCCC[C@@]32C)c(O)c1C
- Activity [3]: 18.7%
- Activity [4]: 2.41%
- Activity [5]: 88.8%
- Activity [6]: inactive
- Activity [7]: inactive
- Activity [8]: inactive
- Activity [9]: 4%
- Activity [10]: 0.47%
- viability at 48 h, 0.1 µM [11]: 42.6%
- Time [12]: 15 days
- Activity [13]: inactive
- Activity [14]: 1.03%
- Activity [15]: inactive
- Activity [16]: 0%
- Activity [17]: 74.7%
- Activity [18]: inactive
- Activity [19]: Non-Toxic
- viability at 48 h, 0.1 µM [20]: 60.6%
- Activity [21]: 11%
- Activity [22]: inactive
- Activity [23]: 1.33%
- viability at 48 h, 10 µM [24]: 8.85%
- viability at 48 h, 10 µM [25]: 41.5%
- Activity [26]: 2.01%

Structure (SMILES): CC[C@@H]1C[C@@]2(C)[C@@H]3CCC[C@H](Cc4c(O)c(C)c(C)oc4=O)[C@@]3(C)CC[C@@H]2O1
- Activity [1]: Active
- Activity [2]: Active

Structure (SMILES): CC[C@@H]1C[C@@]2(C)[C@@H]3CCC[C@@H](Cc4c(O)c(C)c(C)oc4=O)[C@@]3(C)CC[C@@H]2O1
- Activity [1]: Active
- Activity [2]: Active

Structure (SMILES): Cc1oc(=O)c(C[C@H]2CCC[C@H]3CCCC[C@@]32C)c(O)c1C
- Activity [1]: Active
- Activity [2]: Active

Structure (SMILES): C=C1CC[C@H]2[C@]3(C)C[C@@H](C=C(C)C)O[C@H]3CC[C@]2(C)[C@@H]1Cc1ccccc1
- Activity [1]: Active
- Activity [2]: Active

Structure (SMILES): C=C1CC[C@H]2[C@]3(C)C[C@@H](C=C(C)C)O[C@H]3CC[C@]2(C)[C@@H]1Cc1c(O)c(C)c(C)oc1=O [SUBGLUTINOL A]
- Activity [3]: 0.84%
- Activity [10]: 1.54%
- viability at 48 h, 0.1 µM [11]: 14.5%
- Activity [14]: 0%
- Activity [16]: 0%
- viability at 48 h, 0.1 µM [20]: 46%
- Activity [23]: 0.017%
- viability at 48 h, 10 µM [24]: 7.19%
- viability at 48 h, 10 µM [25]: 24.4%
- Activity [26]: 0.064%
- Activity [27]: Dose-dependent effect
